Data set [1] concerns KURAMOCHI cells. The experiment in a line: Inhibition of proliferation of KURAMOCHI cells (CellTiter-Glo, intracellular ATP). It is filed as cell-based. Particulars: 168 h, incubated for 7 days, read-out: IC50 against KURAMOCHI cells. The gist of the method: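 KURAMOCHI cells seeded at 4000/well, incubated overnight, then treated with 9-point 1:4 compound series from 10 µM (0.5% DMSO) for 7 days at 37°C, 5% CO2. Viability read by CellTiter-Glo luminescence; inhibition normalised to medium-only (100%) and DMSO (0%) controls, IC50 from variable-slope four-parameter fit.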

In data set [2] the test system is KURAMOCHI ovarian cancer xenograft model. The experiment in a line: In vivo efficacy study in KURAMOCHI ovarian cancer xenograft model. As to conditions: for TGI (%) / Tumor volume (mm^3): PO; for Tumor volume (mm^3): Mean ± SEM.
Description: (§1) NOD SCID mice, female, SPF grade, purchased from Beijing Anikeepter Biotech Co., Ltd.
KURAMOCHI cells, purchased from JCRB.
(§2) The culture medium was changed weekly. […] Tumor cells in the logarithmic growth phase were used for in vivo implantation.
(§3) A total of 35 mice were inoculated: 35 mice for the efficacy study; 15 mice for the PK/PD study; 10 mice remaining after grouping. When the tumor volume reached approximately 150 to 200 mm^3, the mice were grouped for dosing to initiate the efficacy study. Specifically, they were divided into 7 groups, with 5 mice per group. The remaining animals were grouped for dosing when the tumor volume reached approximately 250 mm^3.
(§4) b. Treatment was initiated after grouping, with a dosing volume of 10 µL/g body weight via oral administration (PO). Animals were weighed daily before dosing and administered once daily for 21 consecutive days. Tumor diameters were measured twice weekly. c. Tumor volume (TV) was measured twice weekly to monitor changes in tumor size and growth rate. Tumor volume was calculated as: V = 1/2 × a × b^2, where a and b represent tumor length and tumor width, respectively. The growth inhibitory effect of compounds on tumor tissue was evaluated using tumor growth inhibition (TGI (%)). […] Data for both the treatment group and the negative control group were collected on the same day. d. The mice were weighed during tumor measurements. The relationship between changes in body weight and time of treatment was recorded. The survival and health status of the mice, including general conditions such as activity level and food intake during the dosing period, were also observed. […] Treatment was resumed when the body weight recovered to within 10% of baseline. […] Nutritional gel supplementation was provided during treatment discontinuation. e. At the study endpoint, the mice were euthanized.
Data set [3] concerns the target T1, PARG (Homo sapiens, UniProt Q86W56).
T1 construct: made in house
The data set is described as follows: Enzymatic inhibitory activity against PARG, HTRF assay. It is filed as biochemical. The procedure, abridged:
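Purified PARG pre-incubated with compounds (top 10 µM, 3- to 5-fold dilutions, duplicates) 15 min at room temperature, then PARylated PARP1 substrate added for 60 min in Tris pH 7.4 buffer with DTT, EDTA/EGTA, KCl. HTRF (His-Tb/SA-XL665) read-out; IC50 by four-parameter logistic fit, normalised to DMSO and control-inhibitor wells.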

Data set [4] relates to KURAMOCHI ovarian cancer xenograft model. As to conditions: mouse, in vivo, po.
Description: as §1
KURAMOCHI cells, purchased from JCRB.
as §2, §3, §4
A short description of data set [5]: Pharmacokinetic evaluation in BALB/c nude mice (PO). It is filed as in vivo. Particulars: mouse, in vivo, 30 mg/kg. The procedure:
Using mice as test animals, the compounds of the present disclosure were administered via intravenous bolus and oral injection. Plasma samples were collected at specific time points. Compound concentrations in plasma were determined by LC-MS/MS, and PK parameters were calculated to characterize the pharmacokinetic behavior of the compounds of the present disclosure in plasma.
BALB/c nude mice, female, supplied by Jiangsu GemPharmatech Co., Ltd.
Dosing regimen for BALB/c nude mice: The PO (oral) experimental group consisted of 3 mice, which were administered at a dose of 30 mg/kg and a volume of 10 mL/kg. The dosing vehicle was 5% (v/v) DMSO/10% (v/v) Solutol/85% (v/v) saline.
Following administration, 0.025 mL of blood was collected via venipuncture at the following time points: 0.0833 (IV), 0.25, 0.5, 1, 2, 4, 8, and 24 hours. Blood samples were collected into EDTA-K2 tubes and centrifuged at 4°C and 2000 g for 10 minutes to separate plasma, which was stored at -80°C.
Mouse plasma processing: • 1) 15 µL of plasma was mixed with 200 µL of acetonitrile for protein precipitation. The mixture was vortexed and centrifuged for 15 minutes. • 2) The supernatant after processing was diluted with water and analyzed by LC/MS/MS to determine the concentration of the test compound.
Pharmacokinetic parameters were calculated using WinNonlin 6.1. Specifically, Cmax represents maximum plasma concentration, CL represents clearance, Vss represents volume of distribution at steady state, T1/2 represents terminal elimination half-life, MRTInf represents mean residence time, AUC represents area under the plasma concentration-time curve, and F represents bioavailability. Table 18: Pharmacokinetic parameters of the compounds of the present disclosure in CD-1 mice

[6] abbreviates: KURAMOCHI xenograft, oral administration.
[7] abbreviates: HTRF, PARylated PARP1 protein as substrate, 60 minutes at room temperature, read-out: IC50 against PARG enzyme.

SMILES strings stand for the structures. Where two headings read alike, the source gives them in different places.

T1 sequence (Q86W56 whole entry): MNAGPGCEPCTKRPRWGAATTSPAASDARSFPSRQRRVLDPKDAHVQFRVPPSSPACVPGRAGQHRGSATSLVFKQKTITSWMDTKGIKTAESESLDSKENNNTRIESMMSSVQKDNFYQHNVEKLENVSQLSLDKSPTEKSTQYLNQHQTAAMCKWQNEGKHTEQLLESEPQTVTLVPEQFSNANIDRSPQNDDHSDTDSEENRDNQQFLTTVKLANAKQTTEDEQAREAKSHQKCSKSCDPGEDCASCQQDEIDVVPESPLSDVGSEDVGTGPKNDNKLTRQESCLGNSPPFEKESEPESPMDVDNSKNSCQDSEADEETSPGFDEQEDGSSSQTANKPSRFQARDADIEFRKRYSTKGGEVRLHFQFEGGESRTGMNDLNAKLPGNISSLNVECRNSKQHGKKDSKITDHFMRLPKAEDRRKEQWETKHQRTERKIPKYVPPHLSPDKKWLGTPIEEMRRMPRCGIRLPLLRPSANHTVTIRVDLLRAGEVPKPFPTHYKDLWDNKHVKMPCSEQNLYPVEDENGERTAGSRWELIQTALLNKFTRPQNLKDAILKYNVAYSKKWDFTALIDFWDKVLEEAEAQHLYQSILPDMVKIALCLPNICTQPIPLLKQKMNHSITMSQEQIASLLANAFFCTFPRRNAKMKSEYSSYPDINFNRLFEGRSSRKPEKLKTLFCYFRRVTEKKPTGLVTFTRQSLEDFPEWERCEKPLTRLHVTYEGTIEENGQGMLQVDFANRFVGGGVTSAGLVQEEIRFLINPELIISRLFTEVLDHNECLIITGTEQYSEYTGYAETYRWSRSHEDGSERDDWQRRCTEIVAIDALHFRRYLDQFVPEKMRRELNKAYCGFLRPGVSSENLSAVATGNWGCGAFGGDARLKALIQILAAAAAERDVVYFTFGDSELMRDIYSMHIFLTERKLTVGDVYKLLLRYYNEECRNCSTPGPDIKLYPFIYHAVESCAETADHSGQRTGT

As to `C[C@H]1CN(c2cc(S(=O)(=O)NC3(C)CC3)cc3c2n2ncnc2n3-c2nnc(C(F)F)s2)C[C@H](C)N1` [Compound 065M], the IC50 in data set [1] turned out to be 3 nM. Besides, in data set [2] (setting [6]), the “tolerability in mice (in words)” value was “good tolerability” and the “tumor growth inhibition (in words)” value is reported as “significantly inhibited tumor growth”. Also, in data set [2] (30 mg/kg, QD × 16 days), the “TGI (%)” value was 127% and the “Tumor volume (mm^3)” value was 62 ± 6 mm^3. The IC50 in data set [3] (setting [7]) came out at 1.4 nM.
Regarding `C[C@H]1CN(c2cc(S(=O)(=O)NC3(C)CC3)cc3c2nc([C@@H]2CCCO2)n3-c2nnc(C(F)F)s2)C[C@H](C)N1` [Compound 077B2], the IC50 turned out to be 3 nM in data set [1] and 1.6 nM in data set [3] (setting [7]). The “tolerability in mice (in words)” value in data set [4] was “good tolerability”. Besides, the “tumor growth inhibition (in words)” value in data set [2] (setting [6]) was “significantly inhibited tumor growth”. Moreover, the “TGI (%)” value in data set [2] (30 mg/kg, BID × 16 days) stood at 127%; in data set [2] (100 mg/kg, QD × 16 days), 127%. Moreover, the “Tumor volume (mm^3)” value is reported as 61 ± 9 mm^3 in data set [2] (30 mg/kg, BID × 16 days) and 57 ± 10 mm^3 in data set [2] (100 mg/kg, QD × 16 days).
Turning to `C[C@H]1CN(c2cc(S(=O)(=O)NC3(C)CC3)cn3c(-c4nnc(C(F)F)s4)c([C@@H]4CCCO4)nc23)C[C@H](C)N1` [Compound 080B2], the IC50 in data set [1] is 0.6 nM. In data set [5], this compound had an AUC of 8.35 µM·h, a Cmax of 1870 nM, an MRT inf of 3.27 h and a half-life of 2.45 h. In addition, the 50% inhibitory concentration (IC50) in data set [3] (setting [7]) amounted to 0.4 nM.
For `CN(C)C(=O)N1CC=C(c2cc(S(=O)(=O)NC3(C)CC3)cc3c2n(C)c(=O)n3-c2nnc(C(F)F)s2)CC1` [Compound A038], the results for the IC50 in data set [1] and in data set [3] (setting [7]) were 7 nM and 5.2 nM, respectively.
Turning to `CN(C)C(=O)N1CCC(c2cc(S(=O)(=O)NC3(C)CC3)cc3c2n(C)c(=O)n3-c2nnc(C(F)F)s2)CC1` [Compound A039], the IC50 was found to be 7 nM in data set [1] and 3.5 nM in data set [3] (setting [7]).
On to `Cn1ccnc1N1CCN(c2cc(S(=O)(=O)NC3(C)CC3)cc3c2n(C)c(=O)n3-c2nnc(C(F)F)s2)CC1` [Compound A040], for which the IC50 was determined as 9 nM in data set [1] and 5 nM in data set [3] (setting [7]).
In the same order, the values of `C=CCn1c(=O)n(-c2nnc(C(F)F)s2)c2cc(S(=O)(=O)NC3(C#N)CC3)cc(N3CCN(C(=O)N(C)C)CC3)c21` [Compound A041] are 11 nM and 4.4 nM.
In the same order, the values of `[2H]C([2H])([2H])N(C(=O)N1CCN(c2cc(S(=O)(=O)NC3(C#N)CC3)cc3c2n(CC=C)c(=O)n3-c2nnc(C(F)F)s2)CC1)C([2H])([2H])[2H]` [Compound A042] are 6 nM and 5.1 nM.
Turning to `CCn1c(=O)n(-c2nnc(C(F)F)s2)c2cc(S(=O)(=O)NC3(C#N)CC3)cc(N3CCN(C(=O)N(C)C)CC3)c21` [Compound A043], the results for the IC50 in data set [1] and in data set [3] (setting [7]) were 11 nM and 8 nM, respectively.
Take `CC(C)n1c(=O)n(-c2nnc(C(F)F)s2)c2cc(S(=O)(=O)NC3(C#N)CC3)cc(N3CCN(C(=O)N(C)C)CC3)c21` [Compound A045]: the IC50 in data set [1] stood at 16 nM; in data set [3] (setting [7]), 13.9 nM.
For `CC(C)n1c(=O)n(-c2nnc(C(F)F)s2)c2cc(S(=O)(=O)NC3(C#N)CC3)cc(N3CCN(S(=O)(=O)C(C)C)CC3)c21` [Compound A046], in that order: 8 nM and 5.5 nM.
`CC(C)n1c(=O)n(-c2nnc(C(F)F)s2)c2cc(S(=O)(=O)NC3(C#N)CC3)cc(N3CCN(C(=O)N4CCCC4)CC3)c21` [Compound A047]: the IC50 in data set [1] was determined as 13 nM; in data set [3], 15 nM.
In the case of `CC(C)n1c(=O)n(-c2nnc(C(F)F)s2)c2cc(S(=O)(=O)NC3(C#N)CC3)cc(N3CCN(C(=O)C(C)(C)F)CC3)c21` [Compound A048], the figures for the IC50 in data set [1] and in data set [3] (setting [7]) were 27 nM and 34.8 nM, respectively.
As to `CC(C)n1c(=O)n(-c2nnc(C(F)F)s2)c2cc(S(=O)(=O)NC3(C#N)CC3)cc(N3CCN(C(=O)C(C)(C)O)CC3)c21` [Compound A049], the IC50 in data set [1] came out at 50 nM; in data set [3] (setting [7]), 15.7 nM.
Consider `CC(C)C(=O)N1CCN(c2cc(S(=O)(=O)NC3(C#N)CC3)cc3c2n(C(C)C)c(=O)n3-c2nnc(C(F)F)s2)CC1` [Compound A050], for which the IC50 in data set [1] was 20 nM; in data set [3] (setting [7]), 22.5 nM.
For `C=CCn1c(=O)n(-c2nnc(C(F)F)s2)c2cc(S(=O)(=O)NC3(C#N)CC3)cc(N3CCN(C(=O)C(C)C)CC3)c21` [Compound A051], in that order: 12 nM and 7.5 nM.
For `C=CCn1c(=O)n(-c2nnc(C(F)F)s2)c2cc(S(=O)(=O)NC3(C#N)CC3)cc(N3CCN(S(=O)(=O)C(C)C)CC3)c21` [Compound A052], in that order: 2 nM and 1.6 nM.
With `C=CCn1c(=O)n(-c2nnc(C(F)F)s2)c2cc(S(=O)(=O)NC3(C#N)CC3)cc(N3CCN(C(=O)C(C)(C)O)CC3)c21` [Compound A053], the IC50 in data set [1] stood at 37 nM; in data set [3] (setting [7]), 6.7 nM.
For `CC1(NS(=O)(=O)c2cc(N3CCNCC3)c3ncn(-c4nnc(C(F)F)s4)c3c2)CC1` [Compound B001], in that order: 53 nM and 44.7 nM.
In the same order, the values of `CC(C)C(=O)N1CCN(c2cc(S(=O)(=O)NC3(C)CC3)cc3c2ncn3-c2nnc(C(F)F)s2)CC1` [Compound B002] are 16 nM and 11.6 nM.
Turning to `CN(C)C(=O)N1CCN(c2cc(S(=O)(=O)NC3(C)CC3)cc3c2ncn3-c2nnc(C(F)F)s2)CC1` [Compound B003], the IC50 is 16 nM in data set [1] and 10.2 nM in data set [3] (setting [7]).
For `CC(C)C(=O)N1CCN(c2cc(S(=O)(=O)NC3(C#N)CC3)cc3c2ncn3-c2nnc(C(F)F)s2)CC1` [Compound B010], in that order: 59 nM and 31.4 nM.
In the case of `CN(C)C(=O)N1CCN(c2cc(S(=O)(=O)NC3(C#N)CC3)cc3c2ncn3-c2nnc(C(F)F)s2)CC1` [Compound B011], the results for the IC50 in data set [1] and in data set [3] (setting [7]) were 32 nM and 9.9 nM, respectively.
On to `N#CC1(NS(=O)(=O)c2cc(N3CCN(C(=O)N4CCCC4)CC3)c3ncn(-c4nnc(C(F)F)s4)c3c2)CC1` [Compound B013], for which the figures for the IC50 in data set [1] and in data set [3] (setting [7]) were 53 nM and 21.3 nM, respectively.
For `CC(C)(F)C(=O)N1CCN(c2cc(S(=O)(=O)NC3(C#N)CC3)cc3c2ncn3-c2nnc(C(F)F)s2)CC1` [Compound B014], in that order: 43 nM and 31.4 nM.
For `C[C@H]1CN(c2cc(S(=O)(=O)NC3(C#N)CC3)cc3c2ncn3-c2nnc(C(F)F)s2)C[C@H](C)N1` [Compound B016], in that order: 74 nM and 21.2 nM.
For the compound `C[C@H]1CN(c2cc(S(=O)(=O)NC3(C#N)CC3)cc3c2ncn3-c2nnc(C(F)F)s2)C[C@H](C)N1C(=O)N(C)C` [Compound B017], the IC50 in data set [1] is 20 nM; in data set [3] (setting [7]), 31.5 nM.
Consider `COc1nc2c(N3CCN(C(=O)N(C)C)CC3)cc(S(=O)(=O)NC3(C#N)CC3)cc2n1-c1nnc(C(F)F)s1` [Compound B019], for which the IC50 came out at 19 nM in data set [1] and 6.3 nM in data set [3] (setting [7]).
For the compound `COc1nc2c(N3CCN(C(=O)C(C)C)CC3)cc(S(=O)(=O)NC3(C#N)CC3)cc2n1-c1nnc(C(F)F)s1` [Compound B020], the IC50 was 59 nM in data set [1] and 19.8 nM in data set [3] (setting [7]).
As for `Cc1nc2c(N3CCN(C(=O)N(C)C)CC3)cc(S(=O)(=O)NC3(C#N)CC3)cc2n1-c1nnc(C(F)F)s1` [Compound B021], the IC50 in data set [1] came to 51 nM; in data set [3] (setting [7]) it was 25.1 nM.
As for `CN(C)C(=O)N1CCN(c2cc(S(=O)(=O)NC3(C)CC3)cc3c2nnn3-c2nnc(C(F)F)s2)CC1` [Compound C002], the IC50 in data set [1] was 25 nM; in data set [3] (setting [7]), 48.2 nM.
